Results on five molecules are retold here after PMC7333355, “Functional and Regulatory Characterization of Three AMTs in Maize Roots” (Frontiers in Plant Science, 2020).

One data set addresses T1, AtAMT1;3 (Arabidopsis thaliana, UniProt Q9SQH9).
T1 construct: gene AMT1-3
The settings on record: 1 mM ammonium chloride.

Another data set has as its target T2, ZmAMT1.3 (Zea mays, UniProt B4F978).
T2 construct: full-length cDNA from maize root RNA in pCI vector, expressed in Xenopus laevis oocytes; no tag stated
T2 sequence (B4F978 1-488): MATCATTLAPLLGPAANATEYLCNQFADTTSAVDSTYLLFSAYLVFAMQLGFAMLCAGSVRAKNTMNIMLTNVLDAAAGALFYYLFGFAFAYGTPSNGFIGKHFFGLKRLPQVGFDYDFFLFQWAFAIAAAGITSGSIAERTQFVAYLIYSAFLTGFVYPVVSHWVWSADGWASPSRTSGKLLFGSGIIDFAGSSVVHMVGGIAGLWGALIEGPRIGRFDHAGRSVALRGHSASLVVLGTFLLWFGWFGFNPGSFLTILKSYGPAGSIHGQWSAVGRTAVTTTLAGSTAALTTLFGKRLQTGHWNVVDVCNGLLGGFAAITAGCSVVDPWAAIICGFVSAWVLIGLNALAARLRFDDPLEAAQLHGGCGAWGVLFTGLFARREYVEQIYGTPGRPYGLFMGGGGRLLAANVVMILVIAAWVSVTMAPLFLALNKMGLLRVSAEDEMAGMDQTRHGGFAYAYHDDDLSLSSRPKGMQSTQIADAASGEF
Put plainly: two-electrode voltage clamp, Xenopus oocytes, inhibition of ammonium-induced current. In kind it is cell-based. Particulars: read-out: % inhibition at 10 mM. For orientation: In two-electrode clamp one electrode senses voltage and the other passes current.

The target in the next data set is T3, ZmAMT1.1a (Zea mays, UniProt B4FRK2).
T3 construct: full-length cDNA from maize root RNA in pCI vector, expressed in Xenopus laevis oocytes; no tag stated
T3 sequence (B4FRK2 1-498): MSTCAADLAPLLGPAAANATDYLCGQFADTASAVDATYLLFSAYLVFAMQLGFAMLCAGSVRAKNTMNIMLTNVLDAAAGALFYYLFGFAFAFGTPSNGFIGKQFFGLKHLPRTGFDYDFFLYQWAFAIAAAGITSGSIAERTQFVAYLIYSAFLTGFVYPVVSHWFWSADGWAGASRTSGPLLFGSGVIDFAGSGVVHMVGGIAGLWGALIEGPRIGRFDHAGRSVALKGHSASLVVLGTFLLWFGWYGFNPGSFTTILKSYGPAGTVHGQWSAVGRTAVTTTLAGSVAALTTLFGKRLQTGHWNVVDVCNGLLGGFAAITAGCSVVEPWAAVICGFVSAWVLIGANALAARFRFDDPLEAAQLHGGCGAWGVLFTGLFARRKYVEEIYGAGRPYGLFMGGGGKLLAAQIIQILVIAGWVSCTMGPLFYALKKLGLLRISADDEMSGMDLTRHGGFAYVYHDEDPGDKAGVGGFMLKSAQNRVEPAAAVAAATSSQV
The data set is described as above. The settings on record: read-out: % inhibition at 10 mM. The class given is cell-based.

The target in the next data set is T4, ZmAMT1.1b (Zea mays, UniProt B4FV06).
T4 construct: full-length cDNA from maize root RNA in pCI vector, expressed in Xenopus laevis oocytes; no tag stated
T4 sequence (B4FV06 1-489): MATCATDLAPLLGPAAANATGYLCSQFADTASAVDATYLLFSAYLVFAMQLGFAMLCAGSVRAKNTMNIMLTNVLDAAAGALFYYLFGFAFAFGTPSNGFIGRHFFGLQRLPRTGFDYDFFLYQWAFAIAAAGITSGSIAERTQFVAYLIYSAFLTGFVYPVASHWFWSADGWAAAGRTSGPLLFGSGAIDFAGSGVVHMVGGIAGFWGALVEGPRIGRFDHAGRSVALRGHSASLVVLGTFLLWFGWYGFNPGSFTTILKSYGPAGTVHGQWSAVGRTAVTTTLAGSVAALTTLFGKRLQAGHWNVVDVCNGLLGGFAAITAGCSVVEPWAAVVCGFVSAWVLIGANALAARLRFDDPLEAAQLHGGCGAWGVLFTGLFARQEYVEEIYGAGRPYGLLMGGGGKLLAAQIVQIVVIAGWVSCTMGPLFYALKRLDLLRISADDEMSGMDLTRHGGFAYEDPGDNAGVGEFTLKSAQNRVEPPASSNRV
The description is as above. In kind it is cell-based. Particulars: read-out: % inhibition at 10 mM.

Substrate in data set [1]: N
Put plainly: cells, lysate or membranes. Particulars: added as chloride.

Substrate in data set [2]: CN
Put plainly: two-electrode voltage clamp, Xenopus oocytes, Michaelis-Menten fit of induced currents. In kind it is cell-based, Zea mays. Particulars: pH 7.4, -140 mV, added as chloride.

T1 sequence (Q9SQH9 whole entry): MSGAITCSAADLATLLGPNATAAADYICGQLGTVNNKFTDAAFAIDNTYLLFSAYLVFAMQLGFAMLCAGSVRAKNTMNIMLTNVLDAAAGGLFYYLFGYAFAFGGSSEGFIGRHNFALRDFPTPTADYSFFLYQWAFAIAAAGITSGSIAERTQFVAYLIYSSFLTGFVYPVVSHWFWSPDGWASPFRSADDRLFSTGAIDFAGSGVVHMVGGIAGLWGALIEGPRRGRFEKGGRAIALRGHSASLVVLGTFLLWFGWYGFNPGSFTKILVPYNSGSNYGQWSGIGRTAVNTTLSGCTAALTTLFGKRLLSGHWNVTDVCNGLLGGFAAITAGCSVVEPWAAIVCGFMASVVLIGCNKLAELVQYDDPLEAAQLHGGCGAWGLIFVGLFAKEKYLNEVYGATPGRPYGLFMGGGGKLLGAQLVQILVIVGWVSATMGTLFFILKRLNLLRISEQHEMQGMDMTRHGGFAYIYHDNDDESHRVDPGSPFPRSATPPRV

Turning to `N` [ammonium], the “two-electrode voltage clamp, Xenopus oocytes, induced current” value on AtAMT1;3 is “Significant ammonium-induced currents were detected in AtAMT1;3-expressing oocytes”.

The term inhibition denotes how much of the control response was suppressed. Take `NC(=O)CC[C@H](N)C(=O)O` [glutamine]: the inhibition at 10000 µM on ZmAMT1.3 was 55.4%; at ZmAMT1.1a it was 69.9%; at ZmAMT1.1b, 67.5%.

B1: ZmAMT1.3 (Zea mays) (protein)
chain: MATCATTLAPLLGPAANATEYLCNQFADTTSAVDSTYLLFSAYLVFAMQLGFAMLCAGSVRAKNTMNIMLTNVLDAAAGALFYYLFGFAFAYGTPSNGFIGKHFFGLKRLPQVGFDYDFFLFQWAFAIAAAGITSGSIAERTQFVAYLIYSAFLTGFVYPVVSHWVWSADGWASPSRTSGKLLFGSGIIDFAGSSVVHMVGGIAGLWGALIEGPRIGRFDHAGRSVALRGHSASLVVLGTFLLWFGWFGFNPGSFLTILKSYGPAGSIHGQWSAVGRTAVTTTLAGSTAALTTLFGKRLQTGHWNVVDVCNGLLGGFAAITAGCSVVDPWAAIICGFVSAWVLIGLNALAARLRFDDPLEAAQLHGGCGAWGVLFTGLFARREYVEQIYGTPGRPYGLFMGGGGRLLAANVVMILVIAAWVSVTMAPLFLALNKMGLLRVSAEDEMAGMDQTRHGGFAYAYHDDDLSLSSRPKGMQSTQIADAASGEF
The Km is the concentration of substrate that gives half-maximal velocity. Take B1: in data set [1] (pH 7.4, -140 mV (potential inferred from Figure 3D range)), the Michaelis-Menten constant (Km) was 18.6 ± 2.8 µM.

B2: ZmAMT1.1b (Zea mays) (protein)
chain: MATCATDLAPLLGPAAANATGYLCSQFADTASAVDATYLLFSAYLVFAMQLGFAMLCAGSVRAKNTMNIMLTNVLDAAAGALFYYLFGFAFAFGTPSNGFIGRHFFGLQRLPRTGFDYDFFLYQWAFAIAAAGITSGSIAERTQFVAYLIYSAFLTGFVYPVASHWFWSADGWAAAGRTSGPLLFGSGAIDFAGSGVVHMVGGIAGFWGALVEGPRIGRFDHAGRSVALRGHSASLVVLGTFLLWFGWYGFNPGSFTTILKSYGPAGTVHGQWSAVGRTAVTTTLAGSVAALTTLFGKRLQAGHWNVVDVCNGLLGGFAAITAGCSVVEPWAAVVCGFVSAWVLIGANALAARLRFDDPLEAAQLHGGCGAWGVLFTGLFARQEYVEEIYGAGRPYGLLMGGGGKLLAAQIVQIVVIAGWVSCTMGPLFYALKRLDLLRISADDEMSGMDLTRHGGFAYEDPGDNAGVGEFTLKSAQNRVEPPASSNRV
On to B2, for which the Km in data set [1] (pH 7.4, -140 mV (potential inferred from Figure 2D range)) was 15.6 µM.

B3: ZmAMT1.1a (Zea mays) (protein)
chain: MSTCAADLAPLLGPAAANATDYLCGQFADTASAVDATYLLFSAYLVFAMQLGFAMLCAGSVRAKNTMNIMLTNVLDAAAGALFYYLFGFAFAFGTPSNGFIGKQFFGLKHLPRTGFDYDFFLYQWAFAIAAAGITSGSIAERTQFVAYLIYSAFLTGFVYPVVSHWFWSADGWAGASRTSGPLLFGSGVIDFAGSGVVHMVGGIAGLWGALIEGPRIGRFDHAGRSVALKGHSASLVVLGTFLLWFGWYGFNPGSFTTILKSYGPAGTVHGQWSAVGRTAVTTTLAGSVAALTTLFGKRLQTGHWNVVDVCNGLLGGFAAITAGCSVVEPWAAVICGFVSAWVLIGANALAARFRFDDPLEAAQLHGGCGAWGVLFTGLFARRKYVEEIYGAGRPYGLFMGGGGKLLAAQIIQILVIAGWVSCTMGPLFYALKKLGLLRISADDEMSGMDLTRHGGFAYVYHDEDPGDKAGVGGFMLKSAQNRVEPAAAVAAATSSQV
notes: full-length cDNA from maize root RNA in pCI vector, expressed in Xenopus laevis oocytes; no tag stated
Take B3: the Km in data set [2] turned out to be 1900 ± 400 µM; in data set [1] (pH 7.4, -140 mV), 9.9 ± 1.9 µM.
